Data from patent US8808751B2, “Methods for the preparation of biologically active compounds in nanoparticulate form” (Iceutica Pty Ltd., priority 2006, dated 2014).
Structures can show the parent of a compound that is named as a salt.

What was measured:
BET surface area = format: physicochemical; details: for BET surface area: raloxifene forms, milled with NaCl and washed (commercial: as obtained)
[1] = Particle size from SEM/TEM images; format: physicochemical; details: for particle size (SEM/TEM): milled with NaCl, grinding compound removed by washing
[2] = Particle size distribution (dynamic light scattering); format: physicochemical; details: washed dispersion, larger aggregates removed by centrifugation
Description: In a preferred form of the invention, about 90% of the particles have a particle size of less than about 500 nm. The particles distribution can be measured with dynamic light scattering of a dispersion of the particles with the aid of sonication, and after centrifugation at 500 rcf for 30 seconds to remove larger agglomerates from the dispersion. Other means to measure the particles size are for examples surface area measurements, and electron micrographs, which can be used to support the measured size distribution of the particles.
The size determined by SEM is in good agreement with the size distribution of the dispersion before drying by dynamic light scatter (DLS) (FIG. 10). Here the particles size was determined with a Malvern HPPS dynamic light scattering apparatus with a size distribution after number of 128±53 nm (number weighted) in intensity a second peak of 300 nm was detected. Prior to the measurement any larger aggregates or agglomerates were removed by 1 min centrifugation at 6000 g, and only the supernatant was analyzed.

[3] = Stability of drug on dry milling; format: physicochemical; details: dry milled with NaCl for 180 minutes; attributed to degradation of the drug
Description: [drawing 3] was placed in a milling apparatus (a 70 cm^3 stainless steel ball mill container) with grinding compound in the form of 3.68 g of NaCl, thereby providing the mixture at 9.6 and 90.4 weight % respectively, corresponding to 15 and 85 volume %, with a total volume of 2 cm^3. Milling media comprising 40 g of 10 mm steel balls (10 pieces) were employed in the container. The milling apparatus was closed under house vacuum prior to milling. […] The mixture was dry milled for 15 minutes and 180 minutes, the composition resulting after milling for both times comprised olanzapine in nanoparticulate form dispersed in the grinding medium NaCl.
Milling times assayed included 15 and 180 minutes in two separate milling runs. Analysis of the melting point of the nanoparticles produced at 180 minute milling time period confirmed that the resulting composition was olanzapine, with a melting point in the range of 200° C.

[4] = Dissolution in simulated intestinal fluid; format: physicochemical; details: simulated intestinal fluid (SIF), 60 mg in 1 L fluid, 90 minutes post addition
Description: (§1) The dissolution properties of the particulate raloxifene hydrochloride were tested with a USP apparatus in simulated gastric conditions, and compared with commercial raloxifene hydrochloride. About 60 mg of particulate raloxifene hydrochloride and commercial raloxifene hydrochloride, respectively, were introduced into gelatin capsules. The dissolution properties were followed as a function of solution concentration versus time.
(§2) As tested prior to administration to the dogs, the particulate raloxifene hydrochloride had the following properties: >75% of the particles were in the range of 220-350 nm in size, with >90% in the range of […]. […] At 90 minutes post addition, approximately 15 mg/L of particulate raloxifene was detected versus 8 mg/L of comparison API for SGF; and 4.5 mg/L versus 0.75 mg/L for SIF.

[5] = Dissolution in simulated gastric fluid (USP apparatus); format: physicochemical; details: simulated gastric fluid (SGF), 60 mg in 1 L fluid, 90 minutes post addition
Description: as §1
The dissolution conditions were as follows: 1 L of 0.1 M HCl containing 2 g of NaCl were degassed and brought to 37° C. in a USP conform dissolution vessel to paddle and stirred at about 80 rpm. […] For each time point, 2 mL of sample were removed from the solution, to remove larger aggregates it was centrifuged for 1 min at 10000 g and 1.5 ml was taken from the top of the solution and the concentration was measured using a Waters HPLC running a method validated with respect to specificity, linearity, precision and repeatability.
as §2

[6] = Pharmacokinetics after oral capsule administration, crossover study; format: in vivo; details: 12 beagle dogs
Description: This study involved the investigation of the pharmacokinetics of raloxifene hydrochloride following oral administration of two dosage formulations to 12 male and female beagle dogs. The two dosage forms investigated were 1) raloxifene hydrochloride particles, developed according to the method of the present invention, and 2) standard API. Both forms were administered as capsules prepared by the Pharmaceutics laboratory of TetraQ.
The study was designed as a crossover trial conducted in 6 male and 6 female healthy Beagle dogs. Raloxifene was administered as an oral dose with three male plus three female dogs each receiving one of the two preparations on each of two dosing occasions. Eleven plasma samples were collected from each animal in the 24 hour period following each dose and these were all available for determination of raloxifene concentration.
Plasma samples were transported to the TetraQ-ADME laboratories on dry ice and all were in an intact (frozen) condition upon arrival. The concentration of raloxifene in the plasma samples was determined by an LC-MS/MS assay developed and validated by TetraQ-ADME,
Pharmacokinetic analysis was performed using purpose-written macros for Excel Software. Standard model-independent pharmacokinetic methods were used. Nominal sampling times were used in the calculations. The plasma raloxifene concentrations were used to determine the following parameters: • (i) Cmax Maximum plasma concentration, read directly from the raw data. • (ii) Tmax Time at which Cmax was achieved, also read directly from the raw data. • (iii) ke Terminal elimination rate constant, which was determined as the slope of the regression line of best fit to the approximately log-linear terminal elimination phase (using the least squares linear regression function in the Excel 2003 software). […]

[7] = 15 vol % sample in NaCl, washed, stabilized with CTAB

O=C(c1ccc(OCCN2CCCCC2)cc1)c1c(-c2ccc(O)cc2)sc2cc(O)ccc12 [Raloxifene HCl (Amorphous), raloxifene hydrochloride]
BET surface area (BET surface area; hydrochloride): 10.6 m^2/g | particle size (SEM/TEM) ([1]; hydrochloride): 100-200 nm

O=C(O)Cc1ccccc1Nc1c(Cl)cccc1Cl [DCA, diclofenac acid]
nanoparticle size [1, 7]: less than 200 nm | size of the majority of nanoparticles [1, 7]: 30-50 nm | nanoparticle diameter (TEM) ([1]; milled with NH4Cl, washed with 0.01 M HCl and 1 mM CTAB): about 200 nm | particle size (SEM/TEM) [1]: 100-200 nm | particle size by DLS (number weighted) [2]: 160±30 nm

Cc1cc2c(s1)Nc1ccccc1N=C2N1CCN(C)CC1 [olanzapine]
appearance after milling (degradation) [3]: some decolourization

O=C(c1ccc(OCCN2CCCCC2)cc1)c1c(-c2ccc(O)cc2)sc2cc(O)ccc12 [commercial raloxifene hydrochloride, raloxifene hydrochloride]
BET surface area (BET surface area; listed as commercial raloxifene HCl, hydrochloride): 0.1 m^2/g | solution concentration detected (dissolution) [4]: ~0.75 mg/L | solution concentration detected (dissolution) [5]: ~8 mg/L | area under the concentration vs. time curve (AUC0-t) ([6]; mean±SD): 21.36 ± 16.79 ng·h/mL | Cmax ([6]; both sexes, dog, plasma, mean±SD, read-out: maximum plasma concentration (Cmax)): 7.69 ± 4.54 ng/mL | Tmax ([6]; both sexes, dog, plasma, read-out: median time to maximum concentration (Tmax)): 1.5 h

O=C(c1ccc(OCCN2CCCCC2)cc1)c1c(-c2ccc(O)cc2)sc2cc(O)ccc12 [Raloxifene Free Base]
particle diameter calculated from BET surface area (BET surface area; density of 1.2 g/cm^3): 85 nm | particle diameter calculated from BET surface area (BET surface area; density of 1.3 g/cm^3, assuming monodispersed nanoparticles): about 80 nm | particle diameter calculated from BET surface area (BET surface area; density of 1.4 g/cm^3): 70 nm | BET surface area (BET surface area): 57.7178±0.4095 m^2/g | particle size (SEM/TEM) [1]: under 100 nm
